The text below walks through data of patent US8030346B2, “Heterocyclic quinolone derivatives that inhibit prolyl hydroxylase activity” (Amgen Inc., priority 2007, dated 2011).

One test deals with HIF PHD2 (Homo sapiens, UniProt Q9GZT9). Kind of test: PHD2 inhibition assay (TR-FRET, VCB-Eu detection of hydroxylated P564-HIF1α peptide). The format is biochemical. The note with it: Table of PHD2 IC50 values of Example Compounds. The procedure:
Inhibition of HIF PHD2 activity was quantified utilizing the TR-FRET technology. HIF PHD2 catalyzes a hydroxyl modification on the proline residue of the P564-HIF1α peptide substrate (Biotin-[…] (SEQ ID NO: 7)) resulting in recognition and binding of the europylated Von Hippel-Lindau protein (pVHL), elongin B and elongin C heterotrimeric (VCB-Eu) complex.
The PHD2 inhibition assay was executed by addition of freshly dissolved FeCl2 to 178.57 μM (100 μM final concentration) in PHD2 Reaction Buffer containing 30 mM MES, pH 6, 10 mM NaCl, 0.25% Brij-35, 0.01% BSA, and 1% DMSO. 28 μL of the iron solution and 2 μL of inhibitor compounds serially diluted in 100% DMSO (5% DMSO final) were added to black polypropylene 96-well microtiter plates. To that, 10 μL of 10 nM PHD2 (2 nM final) was added to all wells of the plate except for the 8 wells of column 12 (LO control), and allowed to incubate at room temperature on the shaker for one hour. Column 6 was the HI control containing PHD2 enzyme and 5% DMSO vehicle, but no inhibitor compound. To initiate the PHD2 enzymatic reaction, 10 μL of a solution containing 500 nM P564-HIF1α peptide (100 nM final), 10 mM ascorbic acid (2 mM final), and 1.25 μM 2-oxoglutarate (α-ketoglutarate; 0.25 μM final) in PHD2 Reaction Buffer was added to all wells of the plate and allowed to incubate on the shaker at room temperature for one hour.
The reaction was terminated by addition of 25 μL TR-FRET Buffer (50 mM TRIS-HCl, pH 9, 100 mM NaCl, 0.05% BSA, and 0.5% Tween-20) containing 150 mM succinate (product inhibitor; 50 mM final), 75 nM streptavidin-APC (25 nM final), and 7.5 nM VCB-Eu (2.5 nM final). The TR-FRET detection reagents were placed on a shaker for 1 hour to reach binding equilibrium before reading on the Discovery platform (PerkinElmer). Europium is excited at 315 nm and phosphoresces at 615 nm with a large Stoke's shift. APC, in turn, emits at 655 nm upon excitation at 615 nm. The TR-FRET signal is measured as the ratio of the APC 655 nm signal divided by the internal europium reference 615 nm emission signal.
The POC (percentage of control) was determined by comparing the signal from hydroxylated peptide substrate in the enzyme reaction containing inhibitor compound with that from PHD2 enzyme with DMSO vehicle alone (HI control), and no enzyme (LO control). POC was calculated using the formula: % control (POC)=(cpd−average LO)/(average HI−average LO)*100. Data (consisting of POC and inhibitor concentration in […]) was fitted to a 4-parameter equation (y=A+((B−A)/(1+((x/C)^D))), where A is the minimum y (POC) value, B is the maximum y (POC), C is the x (cpd concentration) at the point of inflection and D is the slope factor) using a Levenburg-Marquardt non-linear regression algorithm.

The target of test [1] is T1, Collagen Prolyl Hydroxylase II (CPH2) (Homo sapiens, UniProt O15460).
T1 construct: made in house; host or cells: Trichoplusia ni insect cells (baculovirus, pFastBac1)
Kind of test: Collagen prolyl hydroxylase II activity by radiometric HPLC measurement of 2-oxoglutarate conversion to succinic acid. The format is biochemical.
Description: Assay Buffer consisted of Tris-HCl, pH 7.5, 0.2 mM DTT, and 0.5 mg/ml catalase. PPG10 peptide was dissolved in 0.25% acetic acid and denatured by boiling for 5 minutes then placed on ice for 5 minutes. The denatured PPG10 was then pre-mixed with 1 M ascorbate, prepared in water, and the mixture diluted with Assay Buffer to yield a working solution of 5× peptide and ascorbate. FeSO4 was freshly dissolved in water and diluted to a 2.8× concentration in Assay Buffer. Enzyme stocks were diluted to a 5× concentration in Assay Buffer. Example compounds plus FeSO4 solution were mixed, followed by addition of 5× enzyme solutions. After 10 minutes gentle mixing at room temperature, the 5× peptide solution was added. […] Final concentrations in the assay were: 50 mM Tris-HCl, pH 7.5, 0.2 mM DTT, 0.5 mg/mL catalase, 10 μM FeSO4, 100 μM PPG10, 50 μM 5-[^14C]-2-oxoglutarate (23-37 cpm/pmol), 1 mM ascorbate, and 4% DMSO. Reactions were gently mixed at room temperature for 1 hour and terminated by addition of an equal volume of 0.02 N H2SO4.
A portion of each terminated reaction was auto-injected into a Polypore H column (PerkinElmer, Waltham, Mass.) at a rate of 0.3 mL/min with 0.01 NH2SO4 as the mobile phase. The HPLC method employed exploits the difference in pKa of the 2-OG and SA carboxylates to chromatographically separate substrate from product at low pH on ion-exchange resin, as described by Cunliffe, et al (Biochem J., 240, 617-619 (1986)) and Kaule and Gunzler (Anal. Biochem., 184, 291-297 (1990)). An Agilent 1100 HPLC System with dual quaternary pumps, column switching valve, and dual columns was used to resolve product from substrate. The Agilent 1100 Multiple Wavelength Detector indicated UV absorption of the substrate and product peaks at 210 nm and a Beta-RAM Model 2 radiation detector with In-Flow 2:1 scintillation cocktail (IN/US Systems Inc.) enabled quantitation of the 2 radioactive peaks. Laura Lite software (IN/US, Tampa, Fla.) was used to collect and analyze radiometric data. […] To standardize across studies, 2-OG conversion was normalized to percent of control (POC) values using reactions that lacked enzyme or inhibitor as low and high controls, respectively. POC data was fitted to the 4-parameter logistic model (A+((B−A)/(1+((x/C)^D)))) using ActivityBase (IDBS, Alameda Calif.) where A is the minimum POC value, B is the maximum POC value, D is the slope factor, and C is compound concentration at the inflection point (IC50, micromolar).

For orientation: IC50 means the concentration needed to halve the response being measured.

HIF PHD2, sequence (Q9GZT9 whole entry): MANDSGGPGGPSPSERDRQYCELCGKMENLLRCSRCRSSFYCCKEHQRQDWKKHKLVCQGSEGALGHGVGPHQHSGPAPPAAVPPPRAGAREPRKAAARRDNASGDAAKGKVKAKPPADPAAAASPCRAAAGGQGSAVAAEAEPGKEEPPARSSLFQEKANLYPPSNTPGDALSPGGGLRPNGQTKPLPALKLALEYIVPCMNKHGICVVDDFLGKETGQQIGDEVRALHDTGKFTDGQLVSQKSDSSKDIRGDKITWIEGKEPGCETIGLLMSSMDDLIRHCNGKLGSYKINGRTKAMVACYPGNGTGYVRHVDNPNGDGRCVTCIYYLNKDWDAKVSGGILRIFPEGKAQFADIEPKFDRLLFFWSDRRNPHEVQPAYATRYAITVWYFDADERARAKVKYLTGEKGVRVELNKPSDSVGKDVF
T1 sequence (O15460 22-533 isoform O15460-2 limits assumed): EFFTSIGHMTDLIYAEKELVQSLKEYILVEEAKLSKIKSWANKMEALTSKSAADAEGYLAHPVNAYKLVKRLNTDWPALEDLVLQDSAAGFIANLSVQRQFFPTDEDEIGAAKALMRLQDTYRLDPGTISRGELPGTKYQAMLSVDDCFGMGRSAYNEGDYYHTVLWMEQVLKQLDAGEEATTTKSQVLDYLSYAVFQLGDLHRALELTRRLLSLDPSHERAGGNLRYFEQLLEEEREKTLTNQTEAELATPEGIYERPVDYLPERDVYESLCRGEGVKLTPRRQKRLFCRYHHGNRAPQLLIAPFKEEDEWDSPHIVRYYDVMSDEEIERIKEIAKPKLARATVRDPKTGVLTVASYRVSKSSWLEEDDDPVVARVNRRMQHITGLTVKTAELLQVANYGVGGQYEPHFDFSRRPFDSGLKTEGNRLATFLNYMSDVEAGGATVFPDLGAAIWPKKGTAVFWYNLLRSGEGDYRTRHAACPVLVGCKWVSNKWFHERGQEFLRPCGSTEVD
T1 sequence (P07237 18-508 partner): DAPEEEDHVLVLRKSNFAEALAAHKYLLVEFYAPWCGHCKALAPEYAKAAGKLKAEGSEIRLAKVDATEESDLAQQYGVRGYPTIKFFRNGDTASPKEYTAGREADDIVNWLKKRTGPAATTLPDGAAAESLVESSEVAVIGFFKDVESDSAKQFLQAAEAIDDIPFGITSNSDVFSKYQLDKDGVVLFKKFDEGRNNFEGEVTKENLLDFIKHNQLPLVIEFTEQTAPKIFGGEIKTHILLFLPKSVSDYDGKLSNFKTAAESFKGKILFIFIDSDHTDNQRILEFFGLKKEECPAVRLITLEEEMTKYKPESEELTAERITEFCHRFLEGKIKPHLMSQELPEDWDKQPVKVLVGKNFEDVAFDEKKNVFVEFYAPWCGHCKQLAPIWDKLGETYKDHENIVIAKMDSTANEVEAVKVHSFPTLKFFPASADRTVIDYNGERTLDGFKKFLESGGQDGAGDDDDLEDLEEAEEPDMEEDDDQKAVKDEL

`Cn1c(=O)c(C(=O)NCC(=O)O)c(O)c2sc(-c3ccc(Cl)cc3)nc21` [Example 1, N-((2-(4-chlorophenyl)-7-hydroxy-4-methyl-5-oxo-4,5-dihydro[1,3]thiazolo[4,5-b]pyridin-6-yl)carbonyl)glycine] yielded an IC50 against HIF PHD2 of 0.047 µM.

`Cc1nc2c(s1)c(O)c(C(=O)NCC(=O)O)c(=O)n2C` [Example 2, N-((7-hydroxy-2,4-dimethyl-5-oxo-4,5-dihydro[1,3]thiazolo[4,5-b]pyridin-6-yl)carbonyl)glycine] registered an IC50 against HIF PHD2 of 0.02 µM.

As for `Cn1c(=O)c(C(=O)NCC(=O)O)c(O)c2sccc21` [Example 3, 2-(7-hydroxy-4-methyl-5-oxo-4,5-dihydrothieno[3,2-b]pyridine-6-carboxamido)acetic acid], the IC50 on HIF PHD2 was 0.075 µM; in test [1], 0.345 µM.

`Cc1csc2c(O)c(C(=O)NCC(=O)O)c(=O)n(C)c12` [Example 4, 2-(7-hydroxy-3,4-dimethyl-5-oxo-4,5-dihydrothieno[3,2-b]pyridine-6-carboxamido)acetic acid] displayed an IC50 on HIF PHD2 of 0.024 µM.

As for `Cn1c(=O)c(C(=O)NCC(=O)O)c(O)c2sc(-c3ccc(Cl)cc3)cc21` [Example 5, 2-(2-(4-chlorophenyl)-7-hydroxy-4-methyl-5-oxo-4,5-dihydrothieno[3,2-b]pyridine-6-carboxamido)acetic acid], the IC50 at HIF PHD2 stood at 0.097 µM. This IC50 is about 4-fold higher than that of the compound before.

Take `Cn1c(=O)c(C(=O)NCC(=O)O)c(O)c2sc(Br)cc21` [Example 6, 2-(2-bromo-7-hydroxy-4-methyl-5-oxo-4,5-dihydrothieno[3,2-b]pyridine-6-carboxamido)acetic acid]: the figures for the IC50 (against HIF PHD2; in test [1]) were 0.0073 µM and 0.03 µM, respectively.

Turning to `Cc1csc2c(O)c(C(=O)N[C@@H](C)C(=O)O)c(=O)n(C)c12` [Example 7, (S)-2-(7-hydroxy-3,4-dimethyl-5-oxo-4,5-dihydrothieno[3,2-b]pyridine-6-carboxamido)propanoic acid], at HIF PHD2, the IC50 came to 0.122 µM.

The compound `Cn1c(=O)c(C(=O)NCC(=O)O)c(O)c2sc(C(F)(F)F)c(-c3ccccc3)c21` [Example 8, 2-(7-hydroxy-4-methyl-5-oxo-3-phenyl-2-(trifluoromethyl)-4,5-dihydrothieno[3,2-b]pyridine-6-carboxamido)acetic acid] registered an IC50 against HIF PHD2 of 0.018 µM.

In turn, `Cn1c(=O)c(C(=O)NCC(=O)O)c(O)c2sc3ccccc3c21` [Example 9, N-((4-hydroxy-1-methyl-2-oxo-1,2-dihydro[1]benzothieno[3,2-b]pyridin-3-yl)carbonyl)glycine] came in with an IC50 against HIF PHD2 of 0.015 µM.

`C[C@H](NC(=O)c1c(O)c2sc3ccccc3c2n(C)c1=O)C(=O)O` [Example 10, N-((4-hydroxy-1-methyl-2-oxo-1,2-dihydro[1]benzothieno[3,2-b]pyridin-3-yl)carbonyl)-L-alanine] returned an IC50 on HIF PHD2 of 0.109 µM.

`Cn1c(=O)c(C(=O)NCC(=O)O)c(O)c2sc(-c3ccc(F)cc3)cc21` [Example 11, 2-(2-(4-fluorophenyl)-7-hydroxy-4-methyl-5-oxo-4,5-dihydrothieno[3,2-b]pyridine-6-carboxamido)acetic acid] came in with an IC50 at HIF PHD2 of 0.015 µM.

At HIF PHD2, `Cn1c(=O)c(C(=O)NCC(=O)O)c(O)c2sc(-c3cncnc3)cc21` [Example 12, 2-(7-hydroxy-4-methyl-5-oxo-2-(pyrimidin-5-yl)-4,5-dihydrothieno[3,2-b]pyridine-6-carboxamido)acetic acid] had an IC50 of 0.0083 µM.

On HIF PHD2, `Cc1ncccc1-c1cc2c(s1)c(O)c(C(=O)NCC(=O)O)c(=O)n2C` [Example 13, 2-(7-hydroxy-4-methyl-2-(2-methylpyridin-3-yl)-5-oxo-4,5-dihydrothieno[3,2-b]pyridine-6-carboxamido)acetic acid] gave an IC50 of 0.016 µM.

Regarding `Cc1ccsc1-c1cc2c(s1)c(O)c(C(=O)NCC(=O)O)c(=O)n2C` [Example 14, 2-(7-hydroxy-4-methyl-2-(3-methylthiophen-2-yl)-5-oxo-4,5-dihydrothieno[3,2-b]pyridine-6-carboxamido)acetic acid], the IC50 against HIF PHD2 amounted to 0.078 µM.

Compound `Cn1c(=O)c(C(=O)NCC(=O)O)c(O)c2sc(-c3ccccc3)cc21` [Example 15, 2-(7-hydroxy-4-methyl-5-oxo-2-phenyl-4,5-dihydrothieno[3,2-b]pyridine-6-carboxamido)acetic acid] showed an IC50 against HIF PHD2 of 0.021 µM.

Regarding `Cc1c(Br)sc2c(O)c(C(=O)NCC(=O)O)c(=O)n(C)c12` [Example 16, 2-(2-bromo-7-hydroxy-3,4-dimethyl-5-oxo-4,5-dihydrothieno[3,2-b]pyridine-6-carboxamido)acetic acid], the IC50 at HIF PHD2 turned out to be 0.02 µM.

`Cn1c(=O)c(C(=O)CCC(=O)O)c(O)c2sc(Br)cc21` [Example 17, 4-(2-bromo-7-hydroxy-4-methyl-5-oxo-4,5-dihydrothieno[3,2-b]pyridin-6-yl)-4-oxobutanoic acid]: the IC50 against HIF PHD2 came to 0.064 µM; in test [1] it was 3.78 µM.

As for `Cn1c(=O)c(C(=O)CCC(=O)O)c(O)c2sccc21` [Example 18, 4-(7-hydroxy-4-methyl-5-oxo-4,5-dihydrothieno[3,2-b]pyridin-6-yl)-4-oxobutanoic acid], the IC50 against HIF PHD2 worked out at 0.003 µM; in test [1] it was 34.3 µM.
